Measurements as given in patent US20100298141A1, “SUBSTITUTED PYRIDINE N-OXIDE HERBICIDES” (E. I. DU PONT DE NEMOURS AND COMPANY, priority 2007, published 2010).

How the values were obtained:
Italian ryegrass = experiment: Test C pre-/postemergence test; format: in vivo, Lolium multiflorum
How it was run: (§1)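 Test chemicals were formulated with surfactant in a non-phytotoxic solvent and sprayed both on freshly planted seeds (preemergence) and on 1- to 4-leaf plants of 2–18 cm (postemergence). Flooded-paddy pots received compound directly into 3 cm of standing water, maintained for the test.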

yellow nutsedge = experiment: Test C pre-/postemergence test; format: in vivo, Cyperus esculentus
How it was run: as §1

wheat = experiment: Test C pre-/postemergence test; format: in vivo, Triticum aestivum
How it was run: as §1

Goosegrass = experiment: Test C pre-/postemergence test; format: in vivo, Eleusin indica
How it was run: as §1

morningglory = experiment: Test A pre-/postemergence greenhouse test; format: in vivo, Ipomoea spp.; details: for Plant response rating, Morningglory: 0 to 100 scale where 0 is no effect and 100 is complete control; for Morningglory plant response rating: 0 to 100 scale
How it was run: (§2)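 Untreated controls served as the reference for visual injury ratings taken about ten days after spraying. The non-phytotoxic solvent/surfactant formulation was applied preemergence to seeded loam and sand and postemergence to plants two to ten cm high.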

duck salad = experiment: Test C flooded paddy test; format: in vivo, Heteranthera limosa; details: Flood
How it was run: (§3)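 Compound was added to standing water 3 cm above soil, flood maintained, and plants held in a greenhouse before visual scoring against controls at 13 to 15 days.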

corn = experiment: Test C pre-/postemergence test; format: in vivo, Zea mays
How it was run: as §1

common ragweed = experiment: Test C pre-/postemergence test; format: in vivo, Ambrosia elation
How it was run: as §1

woolly cupgrass = experiment: Test C pre-/postemergence test; format: in vivo, Eriochloa villosa
How it was run: as §1

umbrella sedge = experiment: Test C flooded paddy test; format: in vivo, Cyperus difformis; details: Flood
How it was run: as §3

crabgrass = experiment: Test A pre-/postemergence greenhouse test; format: in vivo, Digitaria sanguinalis; details: for Plant response rating, Crabgrass, Large: 0 to 100 scale where 0 is no effect and 100 is complete control; for Crabgrass, Large plant response rating: 0 to 100 scale
How it was run: as §2

[1] = system: common (oilseed) sunflower; experiment: Test C pre-/postemergence test; format: in vivo, Helianthus annuus; details: for Plant response rating, Sunflower: 31 g ai/ha, scale 0 to 100 (0 no effect, 100 complete control)
Description: Seeds of plant species selected from blackgrass (Alopecurus myosuroides), downy brome (Bromus tectorum), green foxtail (Setaria viridis), Italian ryegrass (Lolium multiflorum), wheat (Triticum aestivum), wild oat (Avena fatua), catchweed bedstraw (Galium aparine), Russian thistle (Salsola kali), […] (Cynodon dactylon), Surinam grass (Brachiaria decumbens), cocklebur (Xanthium strumarium), corn (Zea mays), crabgrass (Digitaria sanguinalis), woolly cupgrass (Eriochloa villosa), giant foxtail (Setaria faberii), Goosegrass (Eleusin indica), johnsongrass (Sorghum halepense), kochia (Kochia scoparia), lambsquarters (Chenopodium album), morningglory (Ipomoea coccinea), eastern black nightshade (Solanum ptycanthum), yellow nutsedge (Cyperus esculentus), pigweed (Amaranthus retroflexus), common ragweed (Ambrosia elation), soybean (Glycine max), common (oilseed) sunflower (Helianthus annuus), and velvetleaf (Abutilon theophrasti) were planted and treated preemergence with test chemicals formulated in a non-phytotoxic solvent mixture which included a surfactant. At the same time, plants selected from these crop and weed species and also winter barley (Hordeum vulgare), canarygrass (Phalaris minor), and chickweed (Stellaria media) were treated with postemergence applications of some of the test chemicals formulated in the same manner. Plants ranged in height from 2 to 18 cm (1- to 4-leaf stage) for postemergence treatments. […] At time of treatment, test pots were flooded to 3 cm above the soil surface, treated by application of test compounds directly to the paddy water, and then maintained at that water depth for the duration of the test. […] A dash (-) response means no test result.

green foxtail = experiment: Test C pre-/postemergence test; format: in vivo, Setaria viridis
How it was run: as §1

wild oat = experiment: Test C pre-/postemergence test; format: in vivo, Avena fatua
How it was run: as §1

redroot pigweed = experiment: Test A pre-/postemergence greenhouse test; format: in vivo, Amaranthus retroflexus; details: for Plant response rating, Pigweed: 0 to 100 scale where 0 is no effect and 100 is complete control; for Pigweed plant response rating: 0 to 100 scale
How it was run: as §2

blackgrass = experiment: Test C pre-/postemergence test; format: in vivo, Alopecurus myosuroides
How it was run: as §1

[2] = 62 g ai/ha, Preemergence, scale 0 to 100
[3] = 125 g ai/ha, preemergence, scale 0 (no effect) to 100 (complete control)
[4] = Postemergence, 125 g ai/ha, scale 0 to 100, 0 no effect, 100 complete control
[5] = Postemergence, 250 g ai/ha, scale 0 to 100, 0 no effect, 100 complete control
[6] = Preemergence, 31 g ai/ha, scale 0 to 100 (0 no effect, 100 complete control)
[7] = preemergence, 250 g ai/ha, scale 0 (no effect) to 100 (complete control)
[8] = Postemergence, 62 g ai/ha, scale 0 to 100, 0 no effect, 100 complete control
[9] = Postemergence, 500 g ai/ha, 0 is no effect, 100 is complete control
[10] = Preemergence, 125 g ai/ha, 0 no effect, 100 complete control
[11] = 62 g ai/ha, scale 0 to 100 (0 no effect, 100 complete control)
[12] = 250 g ai/ha, scale 0 to 100, 0 no effect, 100 complete control, 13 to 15 days

Cn1nc(C(F)(F)F)c(C[S+]([O-])c2ccc(F)c[n+]2[O-])c1OCC(F)(F)F (centres unmarked) [Compound 67]
100: Ryegrass, Italian plant response rating (Italian ryegrass; [2]) | Ryegrass, Italian plant response rating (Italian ryegrass; [3]) | Plant response rating, Ryegrass, Italian (Italian ryegrass; [6]) | Ryegrass, Italian plant response rating (Italian ryegrass; [7]) | Wheat plant response rating (wheat; [3]) | Wheat plant response rating (wheat; [7]) | Goosegrass plant response rating (Goosegrass; [2]) | Goosegrass plant response rating (Goosegrass; [3]) | Plant response rating, Goosegrass (Goosegrass; [6]) | Goosegrass plant response rating (Goosegrass; [7]) | Morningglory plant response rating (morningglory; [9]) | Plant response rating, Morningglory (morningglory; Preemergence, 500 g ai/ha) | Plant response rating, Ducksalad (duck salad; [11]) | Corn plant response rating (corn; [7]) | Ragweed plant response rating (common ragweed; [2]) | Ragweed plant response rating (common ragweed; [3]) | Plant response rating, Ragweed (common ragweed; [6]) | Ragweed plant response rating (common ragweed; [7]) | Cupgrass, Woolly plant response rating (woolly cupgrass; [7]) | Plant response rating, Sedge, Umbrella (umbrella sedge; [11]) | Crabgrass, Large plant response rating (crabgrass; [10]) | Plant response rating, Crabgrass, Large (crabgrass; Preemergence, 500 g ai/ha) | Sunflower plant response rating [1, 3] | Sunflower plant response rating [1, 7] | Foxtail, Green plant response rating (green foxtail; [2]) | Foxtail, Green plant response rating (green foxtail; [3]) | Plant response rating, Foxtail, Green (green foxtail; [6]) | Foxtail, Green plant response rating (green foxtail; [7]) | Oat, Wild plant response rating (wild oat; [7]) | Pigweed plant response rating (redroot pigweed; [9]) | Pigweed plant response rating (redroot pigweed; [10]) | Plant response rating, Pigweed (redroot pigweed; Preemergence, 500 g ai/ha) | Blackgrass plant response rating (blackgrass; [2]) | Blackgrass plant response rating (blackgrass; [3]) | Blackgrass plant response rating (blackgrass; [7])
70: Plant response rating, Wheat (wheat; [4]) | Plant response rating, Morningglory (morningglory; Postemergence, 125 g ai/ha) | Morningglory plant response rating (morningglory; [10]) | Plant response rating, Cupgrass, Woolly (woolly cupgrass; [6])
90: Plant response rating, Ryegrass, Italian (Italian ryegrass; [4]) | Plant response rating, Ryegrass, Italian (Italian ryegrass; [5]) | Plant response rating, Goosegrass (Goosegrass; [5]) | Plant response rating, Crabgrass, Large (crabgrass; Postemergence, 125 g ai/ha) | Crabgrass, Large plant response rating (crabgrass; [9]) | Plant response rating, Foxtail, Green (green foxtail; [5]) | Plant response rating, Blackgrass (blackgrass; [4]) | Plant response rating, Blackgrass (blackgrass; [5]) | Plant response rating, Blackgrass (blackgrass; [6])
20: Plant response rating, Oat, Wild (wild oat; [8])
40: Plant response rating (0 to 100), Ryegrass, Italian (Italian ryegrass; Postemergence, 62 g ai/ha) | Nutsedge, Yellow plant response rating (yellow nutsedge; [2]) | Nutsedge, Yellow plant response rating (yellow nutsedge; [3]) | Plant response rating, Wheat (wheat; [6])
80: Cupgrass, Woolly plant response rating (woolly cupgrass; [2]) | Oat, Wild plant response rating (wild oat; [2]) | Plant response rating, Oat, Wild (wild oat; [6]) | Plant response rating, Pigweed (redroot pigweed; Postemergence, 125 g ai/ha) | Plant response rating, Blackgrass (blackgrass; [8])
60: Nutsedge, Yellow plant response rating (yellow nutsedge; [7]) | Plant response rating, Foxtail, Green (green foxtail; [4]) | Plant response rating, Oat, Wild (wild oat; [5])
55: Plant response rating, Ragweed (common ragweed; [5])
30: Plant response rating (0 to 100), Wheat (wheat; Postemergence, 62 g ai/ha) | Plant response rating, Cupgrass, Woolly (woolly cupgrass; [4]) | Plant response rating (0 to 100), Blackgrass (blackgrass; Postemergence, 31 g ai/ha)
50: Plant response rating, Goosegrass (Goosegrass; [4]) | Plant response rating, Ragweed (common ragweed; [4]) | Plant response rating, Cupgrass, Woolly (woolly cupgrass; [5])
95: Corn plant response rating (corn; [2]) | Corn plant response rating (corn; [3])
85: Plant response rating, Wheat (wheat; [5]) | Sunflower plant response rating [1, 2]
98: Wheat plant response rating (wheat; [2]) | Cupgrass, Woolly plant response rating (woolly cupgrass; [3]) | Oat, Wild plant response rating (wild oat; [3])
0: Plant response rating (0 to 100), Ryegrass, Italian (Italian ryegrass; Postemergence, 31 g ai/ha) | Plant response rating (0 to 100), Nutsedge, Yellow (yellow nutsedge; Postemergence, 31 g ai/ha) | Plant response rating, Nutsedge, Yellow (yellow nutsedge; [8]) | Plant response rating, Nutsedge, Yellow (yellow nutsedge; [4]) | Plant response rating, Nutsedge, Yellow (yellow nutsedge; [5]) | Plant response rating, Nutsedge, Yellow (yellow nutsedge; [6]) | Plant response rating (0 to 100), Goosegrass (Goosegrass; Postemergence, 31 g ai/ha) | Plant response rating, Goosegrass (Goosegrass; [8]) | Plant response rating (0 to 100), Corn (corn; Postemergence, 31 g ai/ha) | Plant response rating, Corn (corn; [8]) | Plant response rating, Corn (corn; [5]) | Plant response rating (0 to 100), Ragweed (common ragweed; Postemergence, 31 g ai/ha) | Plant response rating (0 to 100), Ragweed (common ragweed; Postemergence, 62 g ai/ha) | Plant response rating (0 to 100), Cupgrass, Woolly (woolly cupgrass; Postemergence, 31 g ai/ha) | Plant response rating, Cupgrass, Woolly (woolly cupgrass; [8]) | Plant response rating (0 to 100), Foxtail, Green (green foxtail; Postemergence, 31 g ai/ha)
25: Plant response rating (0 to 100), Wheat (wheat; Postemergence, 31 g ai/ha)
10: Plant response rating (0 to 100), Oat, Wild (wild oat; Postemergence, 31 g ai/ha)
45: Plant response rating, Corn (corn; [6]) | Plant response rating, Sunflower ([1]; Preemergence) | Plant response rating, Foxtail, Green (green foxtail; [8])

CCn1nc(C(F)(F)F)c(CS(=O)(=O)c2cccc[n+]2[O-])c1OCC(F)(F)F [Compound 63]
20: Wheat plant response rating (wheat; [2]) | Morningglory plant response rating (morningglory; [10])
0: Plant response rating, Ryegrass, Italian (Italian ryegrass; [6]) | Plant response rating, Nutsedge, Yellow (yellow nutsedge; [6]) | Plant response rating, Wheat (wheat; [6]) | Plant response rating, Ducksalad (duck salad; [11]) | Plant response rating, Cupgrass, Woolly (woolly cupgrass; [6]) | Plant response rating, Sedge, Umbrella (umbrella sedge; [11])
95: Plant response rating, Foxtail, Green (green foxtail; [6]) | Oat, Wild plant response rating (wild oat; [7])
98: Nutsedge, Yellow plant response rating (yellow nutsedge; [7])
55: Nutsedge, Yellow plant response rating (yellow nutsedge; [3])
50: Ryegrass, Italian plant response rating (Italian ryegrass; [2]) | Nutsedge, Yellow plant response rating (yellow nutsedge; [2]) | Plant response rating, Oat, Wild (wild oat; [6]) | Plant response rating, Pigweed (redroot pigweed; Postemergence, 125 g ai/ha)
30: Plant response rating, Morningglory (morningglory; Postemergence, 125 g ai/ha)
90: Corn plant response rating (corn; [3]) | Plant response rating, Ragweed (common ragweed; [6]) | Crabgrass, Large plant response rating (crabgrass; [9])
80: Crabgrass, Large plant response rating (crabgrass; [10]) | Sunflower plant response rating [1, 3] | Pigweed plant response rating (redroot pigweed; [9])
100: Ryegrass, Italian plant response rating (Italian ryegrass; [7]) | Goosegrass plant response rating (Goosegrass; [2]) | Goosegrass plant response rating (Goosegrass; [3]) | Plant response rating, Goosegrass (Goosegrass; [6]) | Goosegrass plant response rating (Goosegrass; [7]) | Corn plant response rating (corn; [7]) | Ragweed plant response rating (common ragweed; [2]) | Ragweed plant response rating (common ragweed; [3]) | Ragweed plant response rating (common ragweed; [7]) | Plant response rating, Crabgrass, Large (crabgrass; Preemergence, 500 g ai/ha) | Foxtail, Green plant response rating (green foxtail; [2]) | Foxtail, Green plant response rating (green foxtail; [3]) | Foxtail, Green plant response rating (green foxtail; [7]) | Plant response rating, Pigweed (redroot pigweed; Preemergence, 500 g ai/ha) | Blackgrass plant response rating (blackgrass; [2]) | Blackgrass plant response rating (blackgrass; [3]) | Blackgrass plant response rating (blackgrass; [7])
10: Plant response rating, Sunflower ([1]; Preemergence)
5: Plant response rating, Corn (corn; [6])
85: Wheat plant response rating (wheat; [7]) | Corn plant response rating (corn; [2]) | Cupgrass, Woolly plant response rating (woolly cupgrass; [2]) | Cupgrass, Woolly plant response rating (woolly cupgrass; [3]) | Plant response rating, Sedge, Umbrella (umbrella sedge; [12]) | Sunflower plant response rating [1, 7] | Oat, Wild plant response rating (wild oat; [3])
70: Plant response rating, Morningglory (morningglory; Preemergence, 500 g ai/ha) | Pigweed plant response rating (redroot pigweed; [10]) | Plant response rating, Blackgrass (blackgrass; [6])
75: Plant response rating, Ducksalad (duck salad; [12])
60: Ryegrass, Italian plant response rating (Italian ryegrass; [3]) | Wheat plant response rating (wheat; [3]) | Morningglory plant response rating (morningglory; [9]) | Plant response rating, Crabgrass, Large (crabgrass; Postemergence, 125 g ai/ha) | Sunflower plant response rating [1, 2] | Oat, Wild plant response rating (wild oat; [2])
